{
  "source": "paper PMC13308190",
  "about": "“Endothelial progenitor cell susceptibility to DNA damaging and DDR-modulating compounds determines endothelial differentiation accuracy” (Stem Cell Research & Therapy, 2026)",
  "type_in_all_cases": "cell-based, mouse",
  "key": {"[1]": {"system": "EC d4", "assay": "VE-cadherin cell-cell junction immunostaining", "conditions": "EC d4 treated 48 h"}, "[2]": {"system": "EC d4", "assay": "ZO1 tight junction immunofluorescence", "conditions": "EC d4 treated 48 h"}, "[3]": {"system": "EC d6", "assay": "Mitochondrial membrane potential (TMRM-MitoTracker Green)", "conditions": "EC d6 treated 24 h", "method": "Mitochondrial membrane potential (ΔΨm) was analyzed by live-cell imaging using TMRM-MitoTracker Green co-staining. Cells were seeded and differentiated on Poly-D-Lysine-fibronectine-coated live-imaging dishes. For staining, cells were incubated with 200nM MitoTracker Green (Invitrogen) and 50 nM TMRM (Invitrogen) in DMEM (30 min, 37 °C, 5% CO2). After washing with PBS, live-cell microscopy was performed using a spinning disc confocal microscope (PerkinElmer) equipped with a 60x oil-immersion objective (N.A = 1.49) and a Hamamatsu C9100 camera (1000 × 1000 pixel) (excitation (MitoTracker Green): 488 nm, excitation (TMRM): 561 nm). The cells were kept at 37 °C in OptiMEM supplemented with 10 mM HEPES during imaging. The images were obtained at emission wavelength of 527 nm (W55) and 615 nm (W70) for 488 nm and 561 nm excitation, respectively."}, "[4]": {"system": "EC d4 (endothelial progenitor cells)", "assay": "AlamarBlue cell viability", "conditions": "48 h treatment", "method": "(§1) Drug-induced cytotoxicity was monitored by analyzing cell viability using the AlamarBlue assay, which measures the reduction of the non-fluorescent dye resazurin (Sigma [Steinheim, Germany]) to fluorescent resorufin by living (i.e. metabolically active) cells. Fluorescence was measured in quadruplicates (excitation: 535 nm, emission: 590 nm (Tecan infinite 200, Tecan, Männedorf, Switzerland)). Relative cell viability of the untreated control was set to 100%."}, "[5]": {"system": "mESC", "assay": "AlamarBlue cell viability", "conditions": "Mus musculus", "method": "as §1"}, "[6]": {"system": "EC d4 (endothelial progenitor cells)", "assay": "RT-qPCR mRNA expression", "conditions": "for Ccl2 mRNA / Icam-1 mRNA / Vcam-1 mRNA / eNos mRNA / iNos mRNA: Fig 8D; for Cdkn1a mRNA / Cdkn2a mRNA / Glb1 mRNA / Il6 mRNA / Il8 mRNA / Tp53 mRNA: Fig 7B", "method": "Total RNA was purified using the RNeasy Mini Kit (Qiagen, Hilden, Germany). Reverse transcriptase (RT) reaction was performed with the HighCapacity cDNA Reverse Transcription Kit (Applied Biosystems, Darmstadt, Germany) using 900–2000 ng of RNA. Quantitative RT-qPCR analysis was performed using following conditions: (1) 95 °C–10 min; (2) 45 amplification cycles with 95 °C–15 s, 55 °C–15 s, and 72 °C–17 s; (3) 95 °C–1 min, 55 °C–1 min, 65 °C–5 s. If not stated otherwise, analyses were performed in technical triplicates using pooled samples from two independent experiments (each performed with biological duplicates) by use of a CFX96 cycler (BioRad) and the SensiMix SYBR Kit (Bioline, London, UK). The primers used for mRNA expression analyses are listed in Supplementary Table 1. To ensure the specificity of the amplification product, melting curves were recorded at the end of the run. mRNA expression levels were normalized to β-Actin and Gapdh. Relative mRNA expression in mESC or corresponding untreated controls was set to 1.0. Only changes in gene expression of ≤ 0.5- and ≥ 2-fold were considered as biologically relevant.\nTo monitor prototypical functions of endothelial cells, the uptake of fluorescent 1,1-dioctadecyl-3,3,3,3-tetra-methylindocarbocyanine-labeled acetylated LDL (Dil-acLDL) was examined. Briefly, cells were incubated with Dil-acLDL (10 µg/ml, 4 h, 37 °C). After fixation (3.7% cold formaldehyde/PBS (15 min, RT) nuclei were counterstained with DAPI. The uptake of DiI-acLDL was analyzed by fluorescence microscopy (Olympus BX43, 20x objective). Additionally, the response of differentiated EC to inflammatory cytokines was measured. After treatment with a pro-inflammatory cytokine mixture (TNFα/IL-1β, 10 ng/mL) for 1 h, mRNA expression of activated EC markers E-selectin, Icam-1, Vcam-1, Ccl2, eNos, iNos was analyzed (RT-qPCR)."}, "[7]": {"conditions": "EC d4 + 0.5 µM 48 h, analysed in EC d6"}, "[8]": {"conditions": "EC d4 + 0.5 µM 48 h, then + I/T (IL-1β/TNFα 10 ng/ml, 1 h)"}, "[9]": {"conditions": "EC d4 + 1 µM 48 h, analysed day 6, Fig 1C"}, "[10]": {"conditions": "EC d4 + 1 µM 48 h, analysed in EC d6"}, "[11]": {"conditions": "EC d4 + 1 µM 48 h, then + I/T (IL-1β/TNFα 10 ng/ml, 1 h)"}},
  "data": [
    {"compound": "Nc1ccccc1NC(=O)c1ccc(CNC(=O)OCc2cccnc2)cc1", "note": "[EST, entinostat]", "values": [
      {"measurement": "VE-cadherin cell-cell junctions in EC d6 differentiated from treated EC d4", "setting": "[1]", "value": "did not trigger defects"},
      {"measurement": "ZO1 containing tight junctions in EC d6 differentiated from treated EC d4", "setting": "[2]", "value": "did not affect"},
      {"measurement": "mitochondrial membrane potential", "setting": "[3]", "value": "remained largely unaffected"},
      {"measurement": "susceptibility (cell viability) of EC d4 as compared to both mESC and EC d6", "setting": "[4]", "value": "significant higher"},
      {"measurement": "IC50", "setting": "[5]; 24 h treatment", "value": 18.8, "unit": "µM"},
      {"measurement": "IC50", "setting": "[5]; 72 h treatment", "value": 2.6, "unit": "µM"},
      {"measurement": "Ccl2 mRNA", "setting": "[6]; [7]", "value": "4.20 Fold of untreated control"},
      {"measurement": "Icam-1 mRNA", "setting": "[6]; [7]", "value": "6.04 Fold of untreated control"},
      {"measurement": "Vcam-1 mRNA", "setting": "[6]; [7]", "value": "0.80 Fold of untreated control"},
      {"measurement": "eNos mRNA", "setting": "[6]; [7]", "value": "156.02 Fold of untreated control"},
      {"measurement": "iNos mRNA", "setting": "[6]; [7]", "value": "4.21 Fold of untreated control"},
      {"measurement": "Ccl2 mRNA", "setting": "[6]; [8]", "value": "454.50 Fold of untreated control"},
      {"measurement": "Icam-1 mRNA", "setting": "[6]; [8]", "value": "26.69 Fold of untreated control"},
      {"measurement": "Vcam-1 mRNA", "setting": "[6]; [8]", "value": "1.68 Fold of untreated control"},
      {"measurement": "eNos mRNA", "setting": "[6]; [8]", "value": "165.80 Fold of untreated control"},
      {"measurement": "iNos mRNA", "setting": "[6]; [8]", "value": "4.06 Fold of untreated control"},
      {"measurement": "Cdkn1a mRNA", "setting": "[6]; EC d4 + 0.5 µM 48 h", "value": "1.59 Fold of untreated control"},
      {"measurement": "Cdkn2a mRNA", "setting": "[6]; EC d4 + 0.5 µM 48 h", "value": "1.29 Fold of untreated control"},
      {"measurement": "Glb1 mRNA", "setting": "[6]; EC d4 + 0.5 µM 48 h", "value": "1.41 Fold of untreated control"},
      {"measurement": "Il6 mRNA", "setting": "[6]; EC d4 + 0.5 µM 48 h", "value": "0.99 Fold of untreated control"},
      {"measurement": "Il8 mRNA", "setting": "[6]; EC d4 + 0.5 µM 48 h", "value": "0.80 Fold of untreated control"},
      {"measurement": "Tp53 mRNA", "setting": "[6]; EC d4 + 0.5 µM 48 h", "value": "1.018 Fold of untreated control"},
      {"measurement": "Flk1 mRNA", "setting": "[6]; [9]", "value": "19.60 Fold of mESC"},
      {"measurement": "Nanog mRNA", "setting": "[6]; [9]", "value": "0.05 Fold of mESC"},
      {"measurement": "Oct4 mRNA", "setting": "[6]; [9]", "value": "0.05 Fold of mESC"},
      {"measurement": "Pecam1 mRNA", "setting": "[6]; [9]", "value": "1.30 Fold of mESC"},
      {"measurement": "VE-cad mRNA", "setting": "[6]; [9]", "value": "858.76 Fold of mESC"},
      {"measurement": "Ccl2 mRNA", "setting": "[6]; [10]", "value": "0.90 Fold of untreated control"},
      {"measurement": "Icam-1 mRNA", "setting": "[6]; [10]", "value": "5.21 Fold of untreated control"},
      {"measurement": "Vcam-1 mRNA", "setting": "[6]; [10]", "value": "0.49 Fold of untreated control"},
      {"measurement": "eNos mRNA", "setting": "[6]; [10]", "value": "58.94 Fold of untreated control"},
      {"measurement": "Ccl2 mRNA", "setting": "[6]; [11]", "value": "132.23 Fold of untreated control"},
      {"measurement": "Icam-1 mRNA", "setting": "[6]; [11]", "value": "19.80 Fold of untreated control"},
      {"measurement": "Vcam-1 mRNA", "setting": "[6]; [11]", "value": "1.55 Fold of untreated control"},
      {"measurement": "eNos mRNA", "setting": "[6]; [11]", "value": "53.06 Fold of untreated control"},
      {"measurement": "iNos mRNA", "setting": "[6]; [11]", "value": "1.30 Fold of untreated control"},
      {"measurement": "Brca1 mRNA", "setting": "[6]; EC d4 + 1 µM 48 h, Fig 5C", "value": "0.32 Fold of mESC"},
      {"measurement": "Chk1 mRNA", "setting": "[6]; EC d4 + 1 µM 48 h, Fig 5C", "value": "0.51 Fold of mESC"},
      {"measurement": "Rad51 mRNA", "setting": "[6]; EC d4 + 1 µM 48 h, Fig 5C", "value": "0.26 Fold of mESC"},
      {"measurement": "Pgc1a mRNA", "setting": "[6]; EC d4 + 1 µM 48 h, Fig 6D", "value": "0.21 Fold of untreated control"},
      {"measurement": "Cdkn1a mRNA", "setting": "[6]; EC d4 + 1 µM 48 h", "value": "1.62 Fold of untreated control"},
      {"measurement": "Cdkn2a mRNA", "setting": "[6]; EC d4 + 1 µM 48 h", "value": "1.49 Fold of untreated control"},
      {"measurement": "Glb1 mRNA", "setting": "[6]; EC d4 + 1 µM 48 h", "value": "1.61 Fold of untreated control"},
      {"measurement": "Il6 mRNA", "setting": "[6]; EC d4 + 1 µM 48 h", "value": "1.09 Fold of untreated control"},
      {"measurement": "Il8 mRNA", "setting": "[6]; EC d4 + 1 µM 48 h", "value": "0.57 Fold of untreated control"},
      {"measurement": "Tp53 mRNA", "setting": "[6]; EC d4 + 1 µM 48 h", "value": "0.99 Fold of untreated control"},
      {"measurement": "Cldn5 mRNA", "setting": "[6]; EC d4 + 1 µM 48 h, Fig 8C", "value": "0.55 Fold of EC d4 or d6"},
      {"measurement": "Ocln mRNA", "setting": "[6]; EC d4 + 1 µM 48 h, Fig 8C", "value": "1.06 Fold of EC d4 or d6"},
      {"measurement": "Tjp1 mRNA", "setting": "[6]; EC d4 + 1 µM 48 h, Fig 8C", "value": "1.56 Fold of EC d4 or d6"},
      {"measurement": "Ldlr mRNA", "setting": "[6]; EC d4 + 1 µM 48 h, Fig 8F", "value": "0.66 Fold of untreated control"}
    ]}
  ]
}
